Earlier results as cited in patent US11766438B2, “Pharmaceutical compositions of tofacitinib for oral administration” (Slayback Pharma LLC, priority 2020, dated 2023).
Where two headings read alike, the source gives them in different places.

## C[C@@H]1CCN(C(=O)CC#N)C[C@@H]1N(C)c1ncnc2[nH]ccc12.O=C(O)CC(O)(CC(=O)O)C(=O)O [Tofacitinib citrate, (3R,4R)-4-methyl-3-(methyl-7H-pyrrolo[2,3-d]pyrimidin-4-ylamino)-β-oxo-1-piperidinepropanenitrile, 2-hydroxy-1,2,3-propanetricarboxylate (1:1)]
Aqueous solution of pH 1 to 3.9
  Solubility: 3480 to 28000 µg/mL
Aqueous solution of pH 4.53 to 8
  Solubility: 200 to 590 µg/mL
